This note sets out measurements from patent publication US20250302832A1, “PYRAZINE DERIVATIVES AND USES THEREOF” (FOGHORN THERAPEUTICS INC., priority 2022, published 2025).

One experiment deals with T1, HiBit-BRM fusion protein (Homo sapiens, UniProt P51531).
T1 construct: expressed in transfected cells
Put plainly: HiBiT-BRM cell-based degradation assay (Nano-Glo HiBiT lytic detection, 24 h). As to conditions: HeLa cell line expressing HiBiT-BRM; for DC50: read-out: BRM HiBit Degradation IC50. In a few lines:
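Luminescence from LgBiT complementation quantified remaining HiBiT-BRM in stably expressing HeLa cells after 24 h compound exposure (top final dose 30 μM, 3-fold, 10 points, duplicate). Degradation expressed as percent relative to DMSO and a 2 μM reference degrader.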
On the technique in general: HiBiT is a short tag that completes a luciferase, so light tracks the accessible tagged protein.

Experiment [1] concerns the target T2, HiBit-BRG1 fusion protein (Homo sapiens, UniProt P51532).
T2 construct: expressed in transfected cells
Put plainly: HiBiT-BRG1 cell-based degradation assay (Nano-Glo HiBiT lytic detection, 24 h). The following applies: HeLa cell line expressing HiBit-BRG1 and LgBit; for Dmax: read-out: BRG1 HiBit Degradation Maximum (%); for DC50: read-out: BRMG1 HiBit Degradation IC50. In a few lines: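 Luminescence from HiBiT/LgBiT complementation after lytic detection reagent was read following 24 h compound exposure of HeLa cells stably carrying HiBiT-BRG1 plus LgBiT (5000 cells/well). Signal scaled to % degradation using DMSO-treated cells as 0% and cells given 2 μM known BRM/BRG1 degrader as 100%.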

T1 sequence (P51531 whole entry, the tested form may be a part): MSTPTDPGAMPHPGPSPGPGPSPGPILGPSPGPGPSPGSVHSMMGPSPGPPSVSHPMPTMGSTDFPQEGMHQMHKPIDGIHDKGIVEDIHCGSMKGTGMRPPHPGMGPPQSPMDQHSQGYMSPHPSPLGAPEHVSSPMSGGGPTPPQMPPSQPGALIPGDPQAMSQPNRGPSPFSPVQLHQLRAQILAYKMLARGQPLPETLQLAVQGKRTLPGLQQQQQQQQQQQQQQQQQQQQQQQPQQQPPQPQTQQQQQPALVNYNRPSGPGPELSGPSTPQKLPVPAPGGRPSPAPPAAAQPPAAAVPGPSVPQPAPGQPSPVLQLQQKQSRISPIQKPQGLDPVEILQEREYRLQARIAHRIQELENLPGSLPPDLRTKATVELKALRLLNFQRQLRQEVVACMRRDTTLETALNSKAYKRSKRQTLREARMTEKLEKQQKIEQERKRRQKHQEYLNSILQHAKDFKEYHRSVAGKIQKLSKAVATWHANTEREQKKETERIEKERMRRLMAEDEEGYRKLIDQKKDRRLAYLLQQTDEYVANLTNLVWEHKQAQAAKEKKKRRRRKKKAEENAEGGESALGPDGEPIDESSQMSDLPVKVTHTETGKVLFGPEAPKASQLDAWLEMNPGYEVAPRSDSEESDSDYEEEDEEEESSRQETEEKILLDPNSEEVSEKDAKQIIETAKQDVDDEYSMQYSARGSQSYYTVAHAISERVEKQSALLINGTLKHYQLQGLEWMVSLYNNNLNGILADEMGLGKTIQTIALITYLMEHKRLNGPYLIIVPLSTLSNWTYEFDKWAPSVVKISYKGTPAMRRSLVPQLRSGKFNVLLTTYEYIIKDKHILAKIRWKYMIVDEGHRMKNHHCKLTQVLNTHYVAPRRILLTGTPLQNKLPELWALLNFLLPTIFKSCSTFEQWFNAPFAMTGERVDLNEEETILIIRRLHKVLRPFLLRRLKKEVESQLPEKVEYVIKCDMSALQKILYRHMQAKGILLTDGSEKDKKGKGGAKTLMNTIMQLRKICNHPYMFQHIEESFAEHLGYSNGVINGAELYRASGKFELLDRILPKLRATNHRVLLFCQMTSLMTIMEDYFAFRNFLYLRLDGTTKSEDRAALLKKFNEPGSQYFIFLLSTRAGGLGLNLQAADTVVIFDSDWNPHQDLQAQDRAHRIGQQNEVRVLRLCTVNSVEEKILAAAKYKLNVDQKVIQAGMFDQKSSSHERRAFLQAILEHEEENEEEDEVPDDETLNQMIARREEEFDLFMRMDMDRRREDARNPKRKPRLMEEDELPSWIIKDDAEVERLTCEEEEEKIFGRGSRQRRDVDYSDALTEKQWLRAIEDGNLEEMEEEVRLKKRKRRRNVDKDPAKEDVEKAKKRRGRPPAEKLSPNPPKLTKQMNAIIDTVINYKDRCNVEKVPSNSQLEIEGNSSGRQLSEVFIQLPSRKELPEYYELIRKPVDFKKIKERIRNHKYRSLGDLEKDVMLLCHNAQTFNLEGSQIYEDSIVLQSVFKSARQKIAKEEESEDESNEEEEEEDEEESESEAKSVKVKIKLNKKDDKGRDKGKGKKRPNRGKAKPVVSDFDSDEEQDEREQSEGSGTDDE
T2 sequence (P51532 whole entry, the tested form may be a part): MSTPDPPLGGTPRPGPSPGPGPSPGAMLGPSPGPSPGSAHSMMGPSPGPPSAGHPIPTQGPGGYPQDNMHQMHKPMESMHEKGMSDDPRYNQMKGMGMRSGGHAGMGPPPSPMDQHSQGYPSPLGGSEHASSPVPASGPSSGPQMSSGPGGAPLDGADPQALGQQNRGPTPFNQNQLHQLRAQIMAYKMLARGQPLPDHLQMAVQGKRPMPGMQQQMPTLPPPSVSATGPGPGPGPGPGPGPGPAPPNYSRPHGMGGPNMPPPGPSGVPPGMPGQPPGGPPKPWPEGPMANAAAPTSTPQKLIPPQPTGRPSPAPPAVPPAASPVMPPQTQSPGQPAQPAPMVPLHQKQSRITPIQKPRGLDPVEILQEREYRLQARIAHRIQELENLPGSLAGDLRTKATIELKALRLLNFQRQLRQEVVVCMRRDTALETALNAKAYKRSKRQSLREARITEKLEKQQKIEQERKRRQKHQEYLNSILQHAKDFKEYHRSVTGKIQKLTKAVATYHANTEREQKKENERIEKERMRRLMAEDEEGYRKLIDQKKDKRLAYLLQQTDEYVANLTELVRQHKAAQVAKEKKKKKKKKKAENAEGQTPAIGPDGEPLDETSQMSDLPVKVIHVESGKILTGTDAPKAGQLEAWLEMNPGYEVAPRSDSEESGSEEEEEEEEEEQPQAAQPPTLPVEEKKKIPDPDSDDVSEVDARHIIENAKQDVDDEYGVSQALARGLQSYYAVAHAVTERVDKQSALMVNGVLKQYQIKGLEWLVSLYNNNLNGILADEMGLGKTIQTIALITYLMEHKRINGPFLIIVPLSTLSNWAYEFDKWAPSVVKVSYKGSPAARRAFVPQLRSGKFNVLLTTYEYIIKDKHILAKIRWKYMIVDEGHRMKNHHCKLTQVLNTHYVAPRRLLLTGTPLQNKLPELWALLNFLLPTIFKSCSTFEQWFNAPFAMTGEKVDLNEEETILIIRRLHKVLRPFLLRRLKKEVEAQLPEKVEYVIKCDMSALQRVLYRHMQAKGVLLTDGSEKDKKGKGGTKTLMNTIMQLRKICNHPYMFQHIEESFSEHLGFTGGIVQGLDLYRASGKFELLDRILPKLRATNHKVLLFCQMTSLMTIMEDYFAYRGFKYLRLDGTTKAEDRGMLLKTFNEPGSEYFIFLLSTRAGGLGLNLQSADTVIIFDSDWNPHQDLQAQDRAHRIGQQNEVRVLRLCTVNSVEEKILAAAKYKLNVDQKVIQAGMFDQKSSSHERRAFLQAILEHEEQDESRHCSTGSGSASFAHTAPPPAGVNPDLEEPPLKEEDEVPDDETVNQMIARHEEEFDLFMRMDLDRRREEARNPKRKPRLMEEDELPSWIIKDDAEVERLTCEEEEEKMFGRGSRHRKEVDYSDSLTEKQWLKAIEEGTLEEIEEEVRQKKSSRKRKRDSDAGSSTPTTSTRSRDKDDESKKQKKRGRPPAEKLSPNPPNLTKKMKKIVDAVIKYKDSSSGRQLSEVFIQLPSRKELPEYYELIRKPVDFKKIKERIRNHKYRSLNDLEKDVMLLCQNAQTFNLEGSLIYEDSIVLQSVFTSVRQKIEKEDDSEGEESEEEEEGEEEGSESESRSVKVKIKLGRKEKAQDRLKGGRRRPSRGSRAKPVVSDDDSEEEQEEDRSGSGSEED

`Cc1ncsc1-c1ccc([C@H](C)NC(=O)[C@@H]2C[C@@H](O)CN2C(=O)[C@@H](c2cc(-c3cnc(N4CC[C@H](c5cc6nnc(-c7ccccc7O)cc6n5C56CC(C5)C6)C4)nc3)no2)C(C)C)cc1` [Compound 95, (2S,4R)-1-((R)-2-(3-(2-((S)-3-(5-(bicyclo[1.1.1]pentan-1-yl)-3-(2-hydroxyphenyl)-5H-pyrrolo[3,2-c]pyridazin-6-yl)pyrrolidin-1-yl)pyrimidin-5-yl)isoxazol-5-yl)-3-methylbutanoyl)-4-hydroxy-N-((S)-1-(4-(4-methylthiazol-5-yl)phenyl)ethyl)pyrrolidine-2-carboxamide]: at HiBit-BRM fusion protein, the “BRM HiBit Degradation Maximum (%)” value is reported as “A (“A” indicates maximum degradation ≥75%)” and the DC50 was below 10 nM. Moreover, in experiment [1], the Dmax was above 50% and the DC50 was above 10 nM.

As to `Cc1ncsc1-c1ccc([C@H](C)NC(=O)[C@@H]2C[C@@H](O)CN2C(=O)[C@H](c2cc(-c3cnc(N4CCC(c5cc6nnc(-c7ccccc7O)cc6n5C5CC5)CC4)nc3)no2)C(C)C)cc1` [Compound 26, (2S,4R)-1-[(2S)-2-[3-(2-{4-[5-cyclopropyl-3-(2-hydroxyphenyl)pyrrolo[3,2-c]pyridazin-6-yl]piperidin-1-yl}pyrimidin-5-yl)-1,2-oxazol-5-yl]-3-methylbutanoyl]-4-hydroxy-N-[(1S)-1-[4-(4-methyl-1,3-thiazol-5-yl)phenyl]ethyl]pyrrolidine-2-carboxamide], the “BRM HiBit Degradation Maximum (%)” value on HiBit-BRM fusion protein was “C (“C” indicates maximum degradation <50%)”. Further, in experiment [1], the Dmax is below 50%.

On to `Cc1ncsc1-c1ccc(CNC(=O)[C@@H]2C[C@@H](O)CN2C(=O)[C@@H](c2cc(N3CCC4(CC3)CC(c3cc5nnc(-c6ccccc6O)cc5n3C3CC3)C4)no2)C(C)C)cc1` [Compound 84, (2S,4R)-1-((R)-2-(3-(2-(5-cyclopropyl-3-(2-hydroxyphenyl)-5H-pyrrolo[3,2-c]pyridazin-6-yl)-7-azaspiro[3.5]nonan-7-yl)isoxazol-5-yl)-3-methylbutanoyl)-4-hydroxy-N-(4-(4-methylthiazol-5-yl)benzyl)pyrrolidine-2-carboxamide], for which, on HiBit-BRM fusion protein, the “BRM HiBit Degradation Maximum (%)” value is “A (“A” indicates maximum degradation ≥75%)” and the DC50 is below 10 nM. The Dmax in experiment [1] was below 50%.

In the case of `Cc1ncsc1-c1ccc([C@H](C)NC(=O)[C@@H]2C[C@@H](O)CN2C(=O)[C@@H](c2cc(-c3ccnc(N4CC[C@@H](c5cc6nnc(-c7ccccc7O)cc6n5C5CC5)C4)n3)no2)C(C)C)cc1` [Compound 116, (2S,4R)-1-[(2R)-2-(3-{2-[(3R)-3-[5-cyclopropyl-3-(2-hydroxyphenyl)pyrrolo[3,2-c]pyridazin-6-yl]pyrrolidin-1-yl]pyrimidin-4-yl}-1,2-oxazol-5-yl)-3-methylbutanoyl]-4-hydroxy-N-[(1S)-1-[4-(4-methyl-1,3-thiazol-5-yl)phenyl]ethyl]pyrrolidine-2-carboxamide], at HiBit-BRM fusion protein, the “BRM HiBit Degradation Maximum (%)” value is “A (“A” indicates maximum degradation ≥75%)” and the DC50 is above 10 nM. The Dmax in experiment [1] was below 50%.

On to `Cc1ncsc1-c1ccc([C@H](C)NC(=O)[C@@H]2C[C@@H](O)CN2C(=O)[C@@H](c2cc(-c3cnc(N4CC[C@@H](c5cc6nnc(-c7cccc(Cl)c7O)cc6n5C5CC5)C4)nc3)no2)C(C)C)cc1` [Compound 69, (2S,4R)-1-((R)-2-(3-(2-((R)-3-(3-(3-chloro-2-hydroxyphenyl)-5-cyclopropyl-5H-pyrrolo[3,2-c]pyridazin-6-yl)pyrrolidin-1-yl)pyrimidin-5-yl)isoxazol-5-yl)-3-methylbutanoyl)-4-hydroxy-N-((S)-1-(4-(4-methylthiazol-5-yl)phenyl)ethyl)pyrrolidine-2-carboxamide], for which, on HiBit-BRM fusion protein, the “BRM HiBit Degradation Maximum (%)” value was “A (“A” indicates maximum degradation ≥75%)” and the DC50 was below 10 nM. Besides, the Dmax in experiment [1] is below 50%.

Consider `Cc1ncsc1-c1ccc([C@H](C)NC(=O)[C@@H]2C[C@@H](O)CN2C(=O)[C@@H](c2cc(OCCN3CCC(c4cc5nnc(-c6ccccc6O)cc5[nH]4)CC3)no2)C(C)C)cc1` [Compound 17, (2S,4R)-4-hydroxy-1-[(2R)-2-[3-(2-{4-[3-(2-hydroxyphenyl)-5H-pyrrolo[3,2-c]pyridazin-6-yl]piperidin-1-yl}ethoxy)-1,2-oxazol-5-yl]-3-methylbutanoyl]-N-[(1S)-1-[4-(4-methyl-1,3-thiazol-5-yl)phenyl]ethyl]pyrrolidine-2-carboxamide], for which, at HiBit-BRM fusion protein, the “BRM HiBit Degradation Maximum (%)” value is “A (“A” indicates maximum degradation ≥75%)” and the DC50 is below 10 nM. In experiment [1], the Dmax was above 75% and the DC50 was above 10 nM.

Turning to `Cc1ncsc1-c1ccc([C@H](C)NC(=O)[C@@H]2C[C@@H](O)CN2C(=O)[C@@H](c2cc(-c3cnc(N4CC[C@@H](c5cc6nnc(-c7cc(F)cc(F)c7O)cc6n5C5CC5)C4)nc3)no2)C(C)C)cc1` [Compound 111, (2S,4R)-1-((R)-2-(3-(2-((R)-3-(5-cyclopropyl-3-(3,5-difluoro-2-hydroxyphenyl)-5H-pyrrolo[3,2-c]pyridazin-6-yl)pyrrolidin-1-yl)pyrimidin-5-yl)isoxazol-5-yl)-3-methylbutanoyl)-4-hydroxy-N-((S)-1-(4-(4-methylthiazol-5-yl)phenyl)ethyl)pyrrolidine-2-carboxamide], at HiBit-BRM fusion protein, the “BRM HiBit Degradation Maximum (%)” value was “A (“A” indicates maximum degradation ≥75%)” and the DC50 is below 10 nM. For the same molecule, the Dmax in experiment [1] was below 50%.

As to `Cc1ncsc1-c1ccc([C@H](C)NC(=O)[C@@H]2C[C@@H](O)CN2C(=O)[C@@H](c2cc(OCCN3CCN(c4cc5nnc(-c6ccccc6O)cc5n4C)CC3)no2)C(C)C)cc1` [Compound 27, (2S,4R)-4-hydroxy-1-[(2R)-2-[3-(2-{4-[3-(2-hydroxyphenyl)-5-methylpyrrolo[3,2-c]pyridazin-6-yl]piperazin-1-yl}ethoxy)-1,2-oxazol-5-yl]-3-methylbutanoyl]-N-[(1S)-1-[4-(4-methyl-1,3-thiazol-5-yl)phenyl]ethyl]pyrrolidine-2-carboxamide], at HiBit-BRM fusion protein, the “BRM HiBit Degradation Maximum (%)” value was “A (“A” indicates maximum degradation ≥75%)” and the DC50 is below 10 nM. Further, in experiment [1], the Dmax is above 75% and the DC50 was above 10 nM.

For the molecule `Cc1ncsc1-c1ccc(CNC(=O)[C@@H]2C[C@@H](O)CN2C(=O)[C@@H](c2cc(-c3cnc(N4CC[C@H](c5cc6nnc(-c7ccccc7O)cc6n5C5CC5)C4)nc3)no2)C(C)C)cc1` [Compound 90, (2S,4R)-1-((R)-2-(3-(2-((S)-3-(5-cyclopropyl-3-(2-hydroxyphenyl)-5H-pyrrolo[3,2-c]pyridazin-6-yl)pyrrolidin-1-yl)pyrimidin-5-yl)isoxazol-5-yl)-3-methylbutanoyl)-4-hydroxy-N-(4-(4-methylthiazol-5-yl)benzyl)pyrrolidine-2-carboxamide], on HiBit-BRM fusion protein, the “BRM HiBit Degradation Maximum (%)” value is given as “A (“A” indicates maximum degradation ≥75%)” and the DC50 was below 10 nM. Besides, in experiment [1], the Dmax was below 50%.

For `Cc1ncsc1-c1ccc([C@H](C)NC(=O)[C@@H]2C[C@@H](O)CN2C(=O)[C@@H](c2cc(-c3cnc(N4CCC(c5cc6nnc(-c7ccccc7O)cc6n5C5CC5)CC4)nc3)no2)C(C)C)cc1` [Compound 25, (2S,4R)-1-[(2R)-2-[3-(2-{4-[5-cyclopropyl-3-(2-hydroxyphenyl)pyrrolo[3,2-c]pyridazin-6-yl]piperidin-1-yl}pyrimidin-5-yl)-1,2-oxazol-5-yl]-3-methylbutanoyl]-4-hydroxy-N-[(1S)-1-[4-(4-methyl-1,3-thiazol-5-yl)phenyl]ethyl]pyrrolidine-2-carboxamide], on HiBit-BRM fusion protein, the “BRM HiBit Degradation Maximum (%)” value is recorded as “A (“A” indicates maximum degradation ≥75%)” and the DC50 was below 10 nM. Also, the Dmax in experiment [1] is below 50%.

As for `CC(C)C(C(=O)N1C[C@H](O)C[C@H]1C(=O)NCc1ccc(F)cc1)c1cc(N2CC3(CC(c4cc5nnc(-c6ccccc6O)cc5n4C4CCC4)C3)C2)no1` (stereo partly drawn) [Compound 50, (2S,4R)-1-(2-(3-(6-(5-cyclobutyl-3-(2-hydroxyphenyl)-5H-pyrrolo[3,2-c]pyridazin-6-yl)-2-azaspiro[3.3]heptan-2-yl)isoxazol-5-yl)-3-methylbutanoyl)-N-(4-fluorobenzyl)-4-hydroxypyrrolidine-2-carboxamide], at HiBit-BRM fusion protein, the “BRM HiBit Degradation Maximum (%)” value is “A (“A” indicates maximum degradation ≥75%)” and the DC50 was above 10 nM. Further, the Dmax in experiment [1] was below 50%.

In the case of `Cc1ncsc1-c1ccc([C@H](C)NC(=O)[C@@H]2C[C@@H](O)CN2C(=O)[C@@H](c2cc(N3CCC[C@H](c4cc5nnc(-c6ccccc6O)cc5n4C4CC4)C3)no2)C(C)C)cc1` [Compound 98, (2S,4R)-1-((R)-2-(3-((S)-3-(5-cyclopropyl-3-(2-hydroxyphenyl)-5H-pyrrolo[3,2-c]pyridazin-6-yl)piperidin-1-yl)isoxazol-5-yl)-3-methylbutanoyl)-4-hydroxy-N-((S)-1-(4-(4-methylthiazol-5-yl)phenyl)ethyl)pyrrolidine-2-carboxamide], on HiBit-BRM fusion protein, the “BRM HiBit Degradation Maximum (%)” value was “A (“A” indicates maximum degradation ≥75%)” and the DC50 was above 10 nM. In addition, in experiment [1], the Dmax was above 75% and the DC50 was above 10 nM.
